Laboratory results reported in US20250304559A1, “Ether-Linked Antiviral Compounds” (Pfizer Inc., priority 2021, published 2025).
Where two headings read alike, the source gives them in different places.

Tests used:
[1] = system: SARS-CoV-2 (USA_WA1/2020); assay: Antiviral Activity from SARS-CoV-2 Infection (cytopathic effect, Cell Titer-Glo); assay type: cell-based; conditions: VeroE6 cells enriched for hACE2, MOI 0.002, 3-day incubation, tested alone or with P-gp inhibitor CP-100356 2 μM (table does not say which), read-out: Geometric Mean EC50
[2] = target: T1, SARS-CoV-2 3CL protease (Severe acute respiratory syndrome coronavirus 2, UniProt P0DTD1); assay: SARS-CoV-2 Coronavirus 3C Protease FRET Assay; assay type: biochemical; conditions: Examples 14-78 and 114 (second head of Table 2); Morrison equation fit, 15 nM enzyme, 25 μM peptide substrate; read-out: Geometric Mean Ki (nM) IC50
T1 construct: measures the activity of full-length SARS-CoV-2 3CL protease

[3] = Severe acute respiratory syndrome coronavirus 2, Vero C1008, 72 h

SMILES	EC50 [1, 3] [nM]	further results
CCc1cc(OCC(=O)[C@H](C[C@@H]2CCNC2=O)NC(=O)[C@@H]2[C@@H]3[C@H](CN2C(=O)[C@@H](NC(=O)C(F)(F)F)C(C)C)C3(C)C)n(C)n1 [Example 45, (1R,2S,5S)-N-{(2S)-4-[(3-ethyl-1-methyl-1H-pyrazol-5-yl)oxy]-3-oxo-1-[(3S)-2-oxopyrrolidin-3-yl]butan-2-yl}-6,6-dimethyl-3-[N-(trifluoroacetyl)-L-valyl]-3-azabicyclo[3.1.0]hexane-2-carboxamide]	384	–
COCC(=O)[C@H](C[C@@H]1CCNC1=O)NC(=O)[C@@H]1CC(C(C)(C)C)CCN1C(=O)[C@@H](NS(=O)(=O)C(F)(F)F)C(C)C (single isomer, unassigned) [Example 15, (2R*,4S*)-4-tert-butyl-N-{(2S)-4-methoxy-3-oxo-1-[(3S)-2-oxopyrrolidin-3-yl]butan-2-yl}-1-[N-(trifluoromethanesulfonyl)-L-valyl]piperidine-2-carboxamide, DIAST-1]	272	–
CCc1cc(OCC(=O)[C@H](C[C@@H]2CCNC2=O)NC(=O)[C@@H]2[C@@H]3[C@H](CN2C(=O)[C@@H](NC(=O)C(F)(F)F)C(C)(C)C)C3(C)C)n(C)n1 [Example 26, (1R,2S,5S)-N-{(2S)-4-[(3-ethyl-1-methyl-1H-pyrazol-5-yl)oxy]-3-oxo-1-[(3S)-2-oxopyrrolidin-3-yl]butan-2-yl}-6,6-dimethyl-3-[3-methyl-N-(trifluoroacetyl)-L-valyl]-3-azabicyclo[3.1.0]hexane-2-carboxamide]	171	–
Cc1nsnc1OCC(=O)[C@H](C[C@@H]1CCNC1=O)NC(=O)[C@@H]1[C@@H]2[C@H](CN1C(=O)[C@@H](NC(=O)C(F)(F)F)C(C)C)C2(C)C [Example 46, (1R,2S,5S)-6,6-dimethyl-N-{(2S)-4-[(4-methyl-1,2,5-thiadiazol-3-yl)oxy]-3-oxo-1-[(3S)-2-oxopyrrolidin-3-yl]butan-2-yl}-3-[N-(trifluoroacetyl)-L-valyl]-3-azabicyclo[3.1.0]hexane-2-carboxamide]	–	Ki [2]: 8.21 nM
CC(C)[C@H](NS(C)(=O)=O)C(=O)N1CCC(C(F)(F)F)C[C@H]1C(=O)N[C@@H](C[C@@H]1CCNC1=O)C(=O)COc1ccc(F)cc1F (single isomer, unassigned) [Example 71, (2R*,4S*)-N-{(2S)-4-(2,4-difluorophenoxy)-3-oxo-1-[(3S)-2-oxopyrrolidin-3-yl]butan-2-yl}-1-[N-(methanesulfonyl)-L-valyl]-4-(trifluoromethyl)piperidine-2-carboxamide, DIAST-1]	–	EC50 [1]: 8310 nM
CCn1nc(C)cc1OCC(=O)[C@H](C[C@@H]1CCNC1=O)NC(=O)[C@@H]1[C@@H]2[C@H](CN1C(=O)[C@@H](NC(=O)C(F)(F)F)C(C)C)C2(C)C [Example 43, (1R,2S,5S)-N-{(2S)-4-[(1-ethyl-3-methyl-1H-pyrazol-5-yl)oxy]-3-oxo-1-[(3S)-2-oxopyrrolidin-3-yl]butan-2-yl}-6,6-dimethyl-3-[N-(trifluoroacetyl)-L-valyl]-3-azabicyclo[3.1.0]hexane-2-carboxamide]	642	–
Cc1ccc(OCC(=O)[C@H](C[C@@H]2CCNC2=O)NC(=O)[C@@H]2[C@@H]3[C@H](CN2C(=O)[C@@H](NC(=O)C(F)(F)F)C(C)(C)C)C3(C)C)cn1 [Example 19, (1R,2S,5S)-6,6-dimethyl-N-{(2S)-4-[(6-methylpyridin-3-yl)oxy]-3-oxo-1-[(3S)-2-oxopyrrolidin-3-yl]butan-2-yl}-3-[3-methyl-N-(trifluoroacetyl)-L-valyl]-3-azabicyclo[3.1.0]hexane-2-carboxamide]	37.2	–
Cc1ccc(OCC(=O)[C@H](C[C@@H]2CCNC2=O)NC(=O)[C@@H]2[C@@H]3[C@H](CN2C(=O)[C@@H](NC(=O)C(F)(F)F)C(C)C)C3(C)C)cn1 [Example 18, (1R,2S,5S)-6,6-dimethyl-N-{(2S)-4-[(6-methylpyridin-3-yl)oxy]-3-oxo-1-[(3S)-2-oxopyrrolidin-3-yl]butan-2-yl}-3-[N-(trifluoroacetyl)-L-valyl]-3-azabicyclo[3.1.0]hexane-2-carboxamide]	114	–
CCc1cc(OCC(=O)[C@H](C[C@@H]2CCNC2=O)NC(=O)[C@@H]2[C@@H]3[C@H](CN2C(=O)[C@@H](NC(=O)OC)C(C)(C)C)C3(C)C)n(C)n1 [Example 37, methyl {(2S)-1-[(1R,2S,5S)-2-({(2S)-4-[(3-ethyl-1-methyl-1H-pyrazol-5-yl)oxy]-3-oxo-1-[(3S)-2-oxopyrrolidin-3-yl]butan-2-yl}carbamoyl)-6,6-dimethyl-3-azabicyclo[3.1.0]hexan-3-yl]-3,3-dimethyl-1-oxobutan-2-yl}carbamate]	900	–
CC(C)[C@H](NS(C)(=O)=O)C(=O)N1CCC(C(F)(F)F)C[C@H]1C(=O)N[C@@H](C[C@@H]1CCNC1=O)C(=O)COc1ccc(F)cc1F (single isomer, unassigned) [Example 41, (2R*,4S*)-N-{(2S)-4-(2,4-difluorophenoxy)-3-oxo-1-[(3S)-2-oxopyrrolidin-3-yl]butan-2-yl}-1-[N-(methanesulfonyl)-L-valyl]-4-(trifluoromethyl)piperidine-2-carboxamide, DIAST-2]	–	EC50 [1]: 224 nM
CC(C)(C)[C@H](NC(=O)C(F)(F)F)C(=O)N1C[C@H]2[C@@H]([C@H]1C(=O)N[C@@H](C[C@@H]1CCNC1=O)C(=O)COc1ccccc1)C2(C)C [Example 20, (1R,2S,5S)-6,6-dimethyl-3-[3-methyl-N-(trifluoroacetyl)-L-valyl]-N-{(2S)-3-oxo-1-[(3S)-2-oxopyrrolidin-3-yl]-4-phenoxybutan-2-yl}-3-azabicyclo[3.1.0]hexane-2-carboxamide]	14.7	–
CC(C)[C@H](NC(=O)C(F)(F)F)C(=O)N1C[C@H]2[C@@H]([C@H]1C(=O)N[C@@H](C[C@@H]1CCNC1=O)C(=O)COc1nnc(C(C)(C)C)n1C)C2(C)C [Example 78, (1R,2S,5S)-N-{(2S)-4-[(5-tert-butyl-4-methyl-4H-1,2,4-triazol-3-yl)oxy]-3-oxo-1-[(3S)-2-oxopyrrolidin-3-yl]butan-2-yl}-6,6-dimethyl-3-[N-(trifluoroacetyl)-L-valyl]-3-azabicyclo[3.1.0]hexane-2-carboxamide]	7370	–
CC(C)[C@H](NC(=O)C(F)(F)F)C(=O)N1C[C@H]2[C@@H]([C@H]1C(=O)N[C@@H](C[C@@H]1CCNC1=O)C(=O)COc1ccc(F)nc1)C2(C)C [Example 31, (1R,2S,5S)-N-{(2S)-4-[(6-fluoropyridin-3-yl)oxy]-3-oxo-1-[(3S)-2-oxopyrrolidin-3-yl]butan-2-yl}-6,6-dimethyl-3-[N-(trifluoroacetyl)-L-valyl]-3-azabicyclo[3.1.0]hexane-2-carboxamide]	167	–
COC(=O)N[C@H](C(=O)N1C[C@H]2[C@@H]([C@H]1C(=O)N[C@@H](C[C@@H]1CCNC1=O)C(=O)COc1cc(C(F)(F)F)nn1C)C2(C)C)C(C)C [Example 36, methyl {(2S)-1-[(1R,2S,5S)-6,6-dimethyl-2-({(2S)-4-{[1-methyl-3-(trifluoromethyl)-1H-pyrazol-5-yl]oxy}-3-oxo-1-[(3S)-2-oxopyrrolidin-3-yl]butan-2-yl}carbamoyl)-3-azabicyclo[3.1.0]hexan-3-yl]-3-methyl-1-oxobutan-2-yl}carbamate]	256	–
